Entries after “also recorded” stand apart in the source; their conditions may differ. Like-named read-outs stand apart in the source and are kept apart here.
Tests used:
HLA-A2 [1] = target: T1, HLA-A2 (Homo sapiens, UniProt P04439, D140Y/D185E/D98H/E176V/E277Q/G131W/G231S/I119V/I121R/I166T/I218V/L300P/L318F/N151K/N90K/P208A/P217A/Q86G/Q94H/R138H/R169H/T345S); format: cell-based; settings: MV-infected WH cells, HLA-A2 ligands, standard LCMS
PBMC = experiment: P.69 Pertactin specific human proliferation assay (in vitro restimulation of PBMC with synthetic peptides); format: cell-based; settings: PBMC from a panel of healthy adult donors, synthetic standards
Protocol: (§1) For P.69 Pertactin specific human proliferation assays, 10^5 PBMC were incubated in complete medium at 150 µl/well in the absence or presence of the relevant peptide(s), at 1 or 10 μM at 37° C. in a 5% CO2 atmosphere. For PorA specific human proliferation assays, 10^5 PBMC or 2×10^4 MB71.5 T cells were incubated in complete medium at 150 μl/well in the absence or presence of the relevant peptide(s), peptide pool or PorAs rP1.7-2.4, P1.5-2.10, P1.7.16, P1.19.15, or P1.22.14 at the indicated concentrations at 37° C. in a 5% CO2 atmosphere. At day 4, 100-μl volumes were removed for the cytokine determinations. Then 0.5 μCi (18.5 kBq) ^3H-thymidine (Amersham, USA) was added to the culture 18 hours before harvesting the cells. Determination of CPM and calculation of the results were performed as for the proliferation assay of immune splenocytes. Results are expressed as SI±SD from at least triplicate wells. The region 4 specific T cell line MB71.5 was generated by repetitive in vitro restimulation of MB71 PBMC with 0.5 μg/ml rP1.5-2.1 in complete medium.
We investigated the immunogenicity of the two Bordetella pertussis P.69 Pertactin epitope regions in humans by in vitro restimulation of PBMC from a panel of healthy adult donors with synthetic standards representing the epitopes.

MB71.5 T cells = experiment: PorA specific human proliferation assay with MB71.5 T cells; format: cell-based; settings: FIG. 17A; region 4 18-mer peptides
Protocol: as §1

[2] = test system: Balb/c and C57black/6 mice; experiment: Murine immunization with PorA and splenocyte proliferation assay; format: in vivo, mouse; settings: splenocytes from Balb/c mice immunized with P1.5-1, 2-2; data not shown
HLA-A2 [3] = target: T1, HLA-A2; format: cell-based; settings: human MDDC, HLA-A2 ligandome; from intensity ratio of native and singly labelled epitope
[4] = approach A (subtractive analysis)

KLWESPQEI [SEQ ID NO: 1]
Abundance (copies/cell) (HLA-A2 [1]; [4]): >100,000 copies/cell
Abundance (copies/cell) (HLA-A2 [1]; approach A (subtractive analysis), listed as MV-C84-92): > 100,000 copies/cell

ASTLWYAESNALSKRLG
immune recognition observed in donors (PBMC): at least 2 donors

GLASFILTI [SEQ ID NO: 6]
Abundance (copies/cell) (HLA-A2 [1]; approach B (isotope labelling)): 150 copies/cell

QLPEATFMV (listed as Measles virus) [SEQ ID NO: 2]
Abundance (copies/cell) (HLA-A2 [1]; [4]): 1,500 copies/cell

PEFSGFSGSVQFVPAQNS [S011-24, synthetic 18-mer, P1.5-2.10 region 4 variant]
Proliferation of MB71.5 T cells with autologous PBMC pulsed with synthetic peptides (MB71.5 T cells): proliferated; also recorded: recognizing
Response of splenocytes to region 4 peptides [2]: responded

KLWESPQEI [SEQ ID NO: 4]
Abundance (copies/cell) (HLA-A2 [1]; approach B (isotope labelling)): 85 copies/cell

SGSVQFVPAQNSKSAYTP [S011-25, synthetic 18-mer, P1.5-2.10 region 4 variant]
Proliferation of MB71.5 T cells with autologous PBMC pulsed with synthetic peptides (MB71.5 T cells): proliferated; also recorded: recognizing
Response of splenocytes to region 4 peptides [2]: responded

VVSEVDIAKAD (listed as Homo sapiens) [SEQ ID NO: 52]
degree of upregulation due to the influenza virus infection (HLA-A2 [3]): 16

LMIDRPYVL [SEQ ID NO: 3]
Abundance (copies/cell) (HLA-A2 [1]; [4]): 150 copies/cell
